The values that follow come from patent US20220362262A1, “METHODS AND COMPOSITIONS FOR TISSUE REGENERATION” (Institute of Zoology, Chinese Academy of Sciences, priority 2019, published 2022).

Entries after “also recorded” stand apart in the source; their conditions may differ.

The test system of assay [1] is muscle stem cells and myoblasts in gastrocnemius, quadriceps and TA muscle. The assay is described as follows: Stem cell and myoblast activation in skeletal muscles without injury, immunofluorescence 2 days after single bolus. It counts as in vivo, mice. The following applies: for fraction of proliferative muscle stem cells (Pax7-positive Ki67-positive cells) / total pool of muscle stem cells (Pax7-positive cells) / total pool of proliferative cells (Ki67-positive cells): without injury. An excerpt: (§1) Some tissues were flash frozen for cryosectioning.

Assay [2] has as its system cryoinjured TA muscle. Put plainly: Muscle regeneration after cryoinjury: regenerative index, myogenic proteins, myofiber diameter, grip strength after bolus injection. It counts as in vivo, mice. The following applies: for regenerative index (fraction of nuclei in embryonic MHC-positive myofibers): single bolus, combinations: prostaglandin at day 0, rosiglitazone at day 1, relative to DMSO vehicle.
From the text: as §1

Assay [3] deals with fibrosis in TA muscle, liver, skin and heart of 2-year old mice. The assay is described as follows: Aging-induced fibrosis and fibrotic precursors in 2-year old mice after daily injection. It counts as in vivo. The following applies: for relative changes in the % fibrotic area (Masson trichrome staining) / relative changes in the percentage fraction of fibrotic precursors (PGDFRA-positive and Ki67-positive): 7 days post-injection, 2-year old mice.
From the text: as §1

Assay [4] has as its system pure primary human myoblasts. The assay is described as follows: Pure primary human myoblasts treated with PGI2-related drugs (Western blot, qRT-PCR). It counts as cell-based. The conditions noted are these: pure primary human myoblasts, relative to DMSO. On the technique in general: A western blot detects proteins with antibodies after separation by electrophoresis.
For assay [5], the system named is Ki67-positive proliferative progenitor cells in liver, heart, skin, hair follicles. Put plainly: Ki67+ progenitor cells in non-skeletal muscle tissues without injury, 2 days after intra-peritoneal treprostinil. It counts as in vivo, mice.
From the text: as §1

Where [6] appears, read: gastrocnemius muscle, 2 days after intramuscular single bolus, PPARD drugs.
Where [7] appears, read: gastrocnemius muscle, 2 days after intraperitoneal single bolus, with or without fenofibrate or WY-14643.
[8] abbreviates: TA muscle, 2 days after intramuscular single bolus, with or without HGF.
The mark [9] stands for this setting: gastrocnemius muscle, 2 days after intra-peritoneal single bolus.
Setting [10] is: quadriceps muscles, 2 days after intra-peritoneal single bolus.

On to `O=C(NCCS(=O)(=O)c1ccc(C(F)(F)F)cn1)c1ccc(Cl)cc1` [GSK3787], for which, in assay [1] (setting [6]), the “percentage fraction of proliferative muscle stem cells (Pax7-positive Ki67-positive cells)” value is “no effect” and the “percentage fraction of proliferative myoblasts (MyoD-positive Ki67-positive cells)” value is on record as “slightly increased”. For the same compound, the “regenerative index (fraction of nuclei in embryonic MHC-positive myofibers)” value in assay [2] (TA muscle 6.5 days post-injury) was “not”.
On the same counts, the results for `Cc1cc(SCc2sc(-c3ccc(C(F)(F)F)c(F)c3)nc2C)ccc1OCC(=O)O` [GW0742] are “surprisingly decreased”, “no effect” and “significantly decrease muscle regeneration”.
On to `CCCCC[C@H](O)/C=C/[C@H]1C(=O)C[C@H](O)[C@@H]1C/C=C\CCCC(=O)O` [PGD2, prostaglandin D2], for which the “regenerative index (fraction of nuclei in embryonic MHC-positive myofibers)” value in assay [2] (TA muscle 6.5 days post-injury) is “slightly but significantly increase muscle regeneration; also recorded: slightly increased regeneration”.
Regarding `CCCCC[C@H](O)/C=C/[C@@H]1[C@@H](CCCCCCC(=O)O)[C@@H](O)C[C@H]1O` [PGF1a], in assay [2] (TA muscle 6.5 days post-injury), the “regenerative index (fraction of nuclei in embryonic MHC-positive myofibers)” value is on record as “significantly decrease muscle regeneration; also recorded: slightly decreased regeneration”.
For the compound `CCCCC[C@@H](/C=C/[C@H]1[C@H](CCCCCCC(=O)O)[C@H]2C[C@@H]1OO2)OO` [PGG1], the “regenerative index (fraction of nuclei in embryonic MHC-positive myofibers)” value in assay [2] (TA muscle 6.5 days post-injury) is listed as “no significant effect; also recorded: did not cause significant changes”.
For the compound `CC(C)OC(=O)C(C)(C)Oc1ccc(C(=O)c2ccc(Cl)cc2)cc1` [fenofibrate], in assay [1] (setting [7]), the “percentage fraction of myoblasts (MyoD-positive cells)” value is listed as “no effect” and the “percentage fraction of proliferative myoblasts (MyoD-positive Ki67-positive cells)” value is listed as “no effect”.
Regarding `CCCCC[C@H](O)CC[C@@H]1[C@H]2Cc3cccc(OCC(=O)O)c3C[C@H]2C[C@H]1O` [treprostinil], the “percentage fraction of proliferative muscle stem cells (Pax7-positive Ki67-positive cells)” value was “significantly increased; also recorded: could increase” in assay [1] (setting [8]) and “significantly increased” in assay [1] (setting [6]). Also, the “percentage fraction of proliferative myoblasts (MyoD-positive Ki67-positive cells)” value is on record as “slightly increased; also recorded: could increase” in assay [1] (setting [8]), “slightly increased” in assay [1] (setting [6]) and “significantly increased” in assay [1] (setting [7]). Moreover, the “fraction of proliferative muscle stem cells (Pax7-positive Ki67-positive cells)” value in assay [1] (TA muscle, 2 days after intramuscular single bolus) is “significantly increased”; in assay [1] (setting [9]) it was “significantly increased”; in assay [1] (setting [10]), “significantly increased”. In addition, the “total pool of muscle stem cells (Pax7-positive cells)” value in assay [1] (setting [9]) and in assay [1] (setting [10]) was “significantly increased” throughout. Besides, the “total pool of proliferative cells (Ki67-positive cells)” value in assay [1] (setting [9]) and in assay [1] (setting [10]) was “significantly increased” in each case. The “percentage fraction of myoblasts (MyoD-positive cells)” value in assay [1] (setting [7]) is listed as “significantly increased”. Besides, the grip strength entry in assay [2] (14 days post-injury, 6-week old mice, prostaglandin at 0 h, rosiglitazone at 24 h post-injury) is reported as “partially restore grip strength”. For the same compound, the “Pax7, MyoD, MyoG and Myh3 protein expression (Western blot densitometry)” value in assay [2] (TA muscle 6 days post-cryoinjury, treprostinil at day 0, rosiglitazone at day 1 in the combination) was “significantly increase; also recorded: could also increase”. In addition, the “hypertrophic growth (myofiber cross-sectional Feret diameters)” value in assay [2] (TA muscle 6.5 days post-injury, prostaglandin at day 0, rosiglitazone at day 1) was “increase hypertrophic growth”. Further, the “regenerative index (fraction of nuclei in embryonic MHC-positive myofibers)” value in assay [2] (TA muscle 6.5 days post-injury) was “significantly increase muscle regeneration”. Further, the “relative changes in the % fibrotic area (Masson trichrome staining)” value is reported as “partially reverse the aged muscle fibrosis; also recorded: significant reversal of aging-induced fibrosis” in assay [3] (TA muscle, daily injection); “partially reverse the aged cardiac fibrosis” in assay [3] (heart tissue, daily injection); “partially reverse the aged liver fibrosis” in assay [3] (liver tissue, daily injection); “partially reverse the aged skin fibrosis” in assay [3] (skin tissue, daily injection). Also, the “relative changes in the percentage fraction of fibrotic precursors (PGDFRA-positive and Ki67-positive)” value is reported as “partially suppress the aged muscle fibrotic precursors” in assay [3] (TA muscle, daily injection); “partially suppress the aged cardiac fibrotic precursors” in assay [3] (heart tissue, daily injection); “partially suppress the aged liver fibrotic precursors” in assay [3] (liver tissue, daily injection); “partially suppress the aged skin fibrotic precursors” in assay [3] (skin tissue, daily injection). For the same compound, in assay [3] (liver, skin and heart, 2-year-old mice), the “PDGFRA+ Ki67+ fibrotic precursor numbers in multiple non-skeletal muscle tissues” value was “suppress”. Further, in assay [3] (liver, skin and heart, daily injection, 2-year-old mice), the “aging-induced fibrosis (fibrotic area) in multiple non-skeletal muscle tissues” value is “significant reversal of aging-induced fibrosis”. The “H3K9ac and MyoD protein (Western blot)” value in assay [4] is recorded as “followed the same pattern of regulation as PPARG”. Further, in assay [4], the “PPARG protein levels (Western blot)” value is recorded as “stabilize and/or upregulate”. For the same compound, the “total pool of proliferative progenitor cells (Ki67-positive cells)” value in assay [5] (endoderm-derived liver tissue) is “significantly increased”; in assay [5] (endoderm-derived liver tissue, listed as Treprostinil) it was “increase the total pool of Ki67+ progenitor cells”; in assay [5] (mesoderm-derived heart and cardiac muscle tissue), “significantly increased; also recorded: increase the total pool of Ki67+ progenitor cells”; in assay [5] (neuroectoderm-derived skin tissue) it was “significantly increased; also recorded: increase”; in assay [5] (skin tissue's telogen hair follicles), “significantly increased; also recorded: increase”.
As for HGF: hepatocyte growth factor, in assay [1] (setting [8]), the “percentage fraction of proliferative muscle stem cells (Pax7-positive Ki67-positive cells)” value is “significantly increased; also recorded: could increase” and the “percentage fraction of proliferative myoblasts (MyoD-positive Ki67-positive cells)” value is on record as “slightly increased; also recorded: could increase”.
